Measured values reported in PubChem BioAssay (NCI).
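Where inhibition never reached the appropriate level, the endpoint shown equals the highest concentration tested. Otherwise, values were interpolated linearly from a five-concentration, 48-hour dose response in 96-well plates. TGI marks complete inhibition of growth.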

Assays:
Test in all cases: NCI tumour cell line growth inhibition, 48 h
M14 melanoma = system: M14 melanoma
SN12C renal = system: SN12C renal
MALME-3M melanoma = system: MALME-3M melanoma
BT-549 breast = system: BT-549 breast
NCI-H23 lung = system: NCI-H23 lung
TK-10 renal = system: TK-10 renal
NCI-H226 lung = system: NCI-H226 lung
OVCAR-3 ovarian = system: OVCAR-3 ovarian
CAKI-1 renal = system: CAKI-1 renal
OVCAR-5 ovarian = system: OVCAR-5 ovarian
MOLT-4 leukemia = system: MOLT-4 leukemia
786-0 renal = system: 786-0 renal
SNB-19 CNS = system: SNB-19 CNS
UACC-257 melanoma = system: UACC-257 melanoma
OVCAR-8 ovarian = system: OVCAR-8 ovarian
HOP-62 NSCLC = system: HOP-62 NSCLC
MDA-MB-435 = system: MDA-MB-435
HCT-15 colon = system: HCT-15 colon
SF-268 CNS = system: SF-268 CNS
SF-295 CNS = system: SF-295 CNS
IGROV1 ovarian = system: IGROV1 ovarian
COLO 205 colon = system: COLO 205 colon
U251 CNS = system: U251 CNS
RXF 393 renal = system: RXF 393 renal
DU-145 prostate = system: DU-145 prostate
EKVX NSCLC = system: EKVX NSCLC
MCF7 breast = system: MCF7 breast
OVCAR-4 ovarian = system: OVCAR-4 ovarian
CCRF-CEM leukemia = system: CCRF-CEM leukemia
ACHN renal = system: ACHN renal
HS 578T breast = system: HS 578T breast
K-562 leukemia = system: K-562 leukemia
LOX IMVI melanoma = system: LOX IMVI melanoma
MDA-N = system: MDA-N
RPMI-8226 leukemia = system: RPMI-8226 leukemia
A549 NSCLC = system: A549 NSCLC
SK-MEL-5 melanoma = system: SK-MEL-5 melanoma
HCT-116 colon = system: HCT-116 colon
SK-MEL-2 melanoma = system: SK-MEL-2 melanoma
MDA-MB-231 breast = system: MDA-MB-231 breast
SW-620 colon = system: SW-620 colon
HT29 colon = system: HT29 colon
HL-60(TB) leukemia = system: HL-60(TB) leukemia
A498 renal = system: A498 renal
KM12 colon = system: KM12 colon
NCI-H460 lung = system: NCI-H460 lung
PC-3 prostate = system: PC-3 prostate
NCI-H522 lung = system: NCI-H522 lung
UACC-62 melanoma = system: UACC-62 melanoma
T-47D breast = system: T-47D breast
SK-MEL-28 melanoma = system: SK-MEL-28 melanoma
UO-31 renal = system: UO-31 renal
NCI/ADR-RES ovarian = system: NCI/ADR-RES ovarian
HCC-2998 colon = system: HCC-2998 colon
SNB-75 CNS = system: SNB-75 CNS
SK-OV-3 ovarian = system: SK-OV-3 ovarian

Measured: TGI

CCc1n[nH]c(=O)n1/N=C/c1ccc(/C=N/n2c(CC)n[nH]c2=O)cc1
not listed: HCC-2998 colon | SNB-75 CNS | SK-OV-3 ovarian
> 100 µM: all other assays above

O=S(=O)(c1ccc(Cl)cc1)c1ccccc1C1=NCCN1
not listed: LOX IMVI melanoma | A498 renal | NCI-H522 lung
> 100 µM: all other assays above
